Source: ChEMBL document CHEMBL1201862, “PubChem BioAssay data set” (2004)
The source made the active and inactive calls.

Tests used:
[1] = control 3'UTR Renilla luciferase suppression, dose response, counter-screen for Shn3 inhibitor project, cell-based, Clone20-Shn3RL, cherry-picked (AID 624133); type: functional
[2] = Shn3 3'UTR reporter inhibitors, dose response, cell-based, Clone20 osteoblasts, firefly luciferase, cherry-picked (AID 624132); type: functional;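 further: firefly luciferase luminescence from reporter carrying the Shn3 3'UTR in osteoblasts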
[3] = target: T1, Protein disulfide-isomerase (Homo sapiens, UniProt P07237); test: PDI inhibitors, insulin aggregation turbidity, dose response, biochemical, absorbance, cherry-picked samples (AID 602350); type: functional
T1 sequence (P07237 whole entry, the tested form may be a part): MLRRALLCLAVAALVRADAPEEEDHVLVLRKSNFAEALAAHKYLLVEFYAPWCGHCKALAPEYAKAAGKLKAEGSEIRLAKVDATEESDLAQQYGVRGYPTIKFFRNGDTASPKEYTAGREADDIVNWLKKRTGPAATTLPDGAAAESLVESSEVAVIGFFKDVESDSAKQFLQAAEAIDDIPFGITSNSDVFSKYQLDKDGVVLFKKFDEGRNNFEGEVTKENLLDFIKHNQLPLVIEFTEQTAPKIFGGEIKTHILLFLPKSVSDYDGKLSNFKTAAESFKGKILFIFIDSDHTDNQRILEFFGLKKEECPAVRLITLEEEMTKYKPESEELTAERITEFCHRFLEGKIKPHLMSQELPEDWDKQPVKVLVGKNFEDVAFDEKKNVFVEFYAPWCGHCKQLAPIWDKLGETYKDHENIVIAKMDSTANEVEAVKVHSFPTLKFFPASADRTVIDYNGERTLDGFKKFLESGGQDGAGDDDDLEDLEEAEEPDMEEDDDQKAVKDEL

[4] = Fluorescence-based cell-based high throughput dose response assay for inhibitors of the interaction of nucleotide-binding oligomerization domain containing 2 (NOD2) and the receptor-interacting serine-threonine kinase 2 (RIPK2).; type: functional; conditions: Homo sapiens
Paired box protein Pax-8 = Paired box protein Pax-8 (Homo sapiens, UniProt Q06710); test: inhibitors of PAX8-driven TPO luciferase reporter, dose response, RMG-I cells, cherry-pick (AID 687027); type: functional, cell-based;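 further: luciferase reporter driven by Pax8 target thyroperoxidase promoter measured by SteadyGlo luminescence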
Chain of Paired box protein Pax-8 (Q06710 whole entry): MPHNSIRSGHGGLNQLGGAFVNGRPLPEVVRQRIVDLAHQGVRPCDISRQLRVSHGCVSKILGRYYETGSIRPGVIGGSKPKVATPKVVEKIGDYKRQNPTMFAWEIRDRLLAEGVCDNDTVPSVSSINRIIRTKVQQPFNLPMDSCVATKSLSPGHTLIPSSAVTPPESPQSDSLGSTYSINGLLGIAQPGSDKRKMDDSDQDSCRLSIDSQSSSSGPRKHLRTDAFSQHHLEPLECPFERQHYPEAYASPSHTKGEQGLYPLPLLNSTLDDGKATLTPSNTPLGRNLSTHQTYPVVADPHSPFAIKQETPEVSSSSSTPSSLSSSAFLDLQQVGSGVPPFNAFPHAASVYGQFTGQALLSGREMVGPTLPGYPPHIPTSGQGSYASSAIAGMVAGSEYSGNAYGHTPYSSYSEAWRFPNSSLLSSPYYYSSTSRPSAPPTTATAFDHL

[5] = target: T1, Protein disulfide-isomerase; test: PDI inhibitors, insulin turbidity readout, dose response, biochemical, absorbance, cherry-picked samples, set 2 (AID 624274); type: functional
Beta Lactamase [6] = target: T2, Beta Lactamase (Pseudomonas aeruginosa, UniProt Q932Y6); test: beta-lactamase reporter inhibitor potency, dose response, artefact control for NOD2-RIPK2 interaction inhibitor project, BLA reporter cells, FRET fluorescence (AID 651552); type: functional, cell-based
T2 sequence (Q932Y6 whole entry): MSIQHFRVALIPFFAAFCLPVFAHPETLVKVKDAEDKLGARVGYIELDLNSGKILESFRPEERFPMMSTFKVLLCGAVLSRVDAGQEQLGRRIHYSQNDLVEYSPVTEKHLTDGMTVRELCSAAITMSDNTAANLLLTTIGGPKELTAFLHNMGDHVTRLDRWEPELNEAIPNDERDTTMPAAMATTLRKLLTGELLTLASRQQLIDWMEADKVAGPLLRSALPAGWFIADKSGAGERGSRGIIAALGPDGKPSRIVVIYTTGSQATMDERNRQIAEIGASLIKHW

[7] = HepG2 cell cytotoxicity, dose response, cytotoxicity control for Shn3 inhibitor project, CellTiter-Glo, cherry-picked (AID 624134); type: functional, cell-based
[8] = non-specific cell cytotoxicity, dose response, cytotoxicity control for PAX8 inhibitor project, plate reader, dry powder samples (AID 743021); type: functional, cell-based
[9] = NIH/3T3 fibroblast cytotoxicity, dose response, cytotoxicity control for T. cruzi growth inhibitor project, cell-based, cherry-pick samples, set 2 (AID 651817); type: functional; conditions: NIH3T3
[10] = miR-122 activators in hepatoma reporter cells, dose response, cell-based, Huh7 psiCHECK-miR122, Renilla luciferase, cherry-picked (AID 651956); type: functional;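 further: huh7 hepatoma cells stably carrying a psiCHECK-2 miR-122 sensor plasmid; renilla luciferase signal reporting endogenous miR-122 activity after 48 h compound exposure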
[11] = HEK293T cytotoxicity, dose response, cytotoxicity control for miR-122 modulator project, cell-based, activator set, cherry-pick (AID 720690); type: functional;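 further: HEK293T human cells scored for general mammalian cytotoxicity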
Beta-lactamase [12] = target: T3, Beta-lactamase (Pseudomonas aeruginosa, UniProt Q79MP6); test: […] counterscreen for selective VIM-2 inhibitors: dose response biochemical high throughput screening assay to identify inhibitors of IMP-1 metallo-beta-lactamase.
T3 sequence (Q79MP6 whole entry): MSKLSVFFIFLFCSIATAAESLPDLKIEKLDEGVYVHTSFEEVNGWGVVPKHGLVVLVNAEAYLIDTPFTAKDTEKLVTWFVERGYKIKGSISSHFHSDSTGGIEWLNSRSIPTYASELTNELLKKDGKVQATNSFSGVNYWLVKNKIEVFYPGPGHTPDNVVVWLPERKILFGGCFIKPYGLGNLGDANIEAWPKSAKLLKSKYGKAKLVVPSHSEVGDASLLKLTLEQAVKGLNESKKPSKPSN

Beta Lactamase [13] = target: T2, Beta Lactamase; test: VIM-2 inhibitor FRET-based artefact check, dose response, artefact control for selective VIM-2 inhibitor project, biochemical, FRET readout, CCF2 substrate (AID 1926)
Beta Lactamase [14] = target: T2, Beta Lactamase; test: VIM-2 metallo-beta-lactamase inhibitor potency, dose response, biochemical, epi-absorbance readout, selective inhibitors (AID 1919)
Beta-lactamase [15] = target: T3, Beta-lactamase; test: IMP-1 metallo-beta-lactamase inhibitors, dose response, selectivity assay for VIM-2 inhibitor project, biochemical, epi-absorbance (AID 1920)
Beta-lactamase [16] = target: Beta-lactamase (Salmonella choleraesuis (strain SC-B67), UniProt Q5J463); test: Epi-absorbance-based counterscreen for selective VIM-2 inhibitors: dose response biochemical high throughput screening assay to identify inhibitors of TEM-1 serine-beta-lactamase.
Chain of Beta-lactamase (Salmonella choleraesuis (strain SC-B67), UniProt Q5J463) (Q5J463 whole entry): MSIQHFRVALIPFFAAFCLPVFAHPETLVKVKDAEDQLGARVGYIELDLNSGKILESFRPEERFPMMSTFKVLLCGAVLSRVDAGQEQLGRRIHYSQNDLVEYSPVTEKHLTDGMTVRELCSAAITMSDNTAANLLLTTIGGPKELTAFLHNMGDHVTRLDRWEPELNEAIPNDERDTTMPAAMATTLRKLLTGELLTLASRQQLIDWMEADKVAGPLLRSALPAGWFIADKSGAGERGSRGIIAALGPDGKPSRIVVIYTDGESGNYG

With `CS(=O)(=O)c1ccc(C(=O)OCC(=O)N2CCN(CCC3CCCCC3)CC2)cc1[N+](=O)[O-]` the AC50 [1] was 5.81 µM (active), the AC50 [2] was 2.41 µM (active) and the AC50 [3] was < 0.009 µM (active). For the same compound, the IC50 [4] was 1.84 µM (active), the AC50 (Paired box protein Pax-8) was 6.68 µM (active) and the AC50 [5] was 0.009 µM (active). The IC50 (Beta Lactamase [6]) was 11.6 µM (inactive), the AC50 [7] was 8.73 µM (active) and the AC50 [8] was 27 µM (active).

In the case of `C[C@@H]1CN([C@@H](C)CO)C(=O)c2cccc(NC(=O)Nc3ccc(C(F)(F)F)cc3)c2O[C@@H]1CN(C)Cc1ccc(Cl)c(Cl)c1`, the AC50 [9] is reported as 14.2 µM (active).

For `C[C@@H]1CN([C@@H](C)CO)C(=O)c2cc(C#CC3CCCCC3)cnc2O[C@H]1CN(C)S(=O)(=O)c1cccc(F)c1`, the AC50 [10] was 13.9 µM (active) and the AC50 [11] was 24.6 µM (active).

With `CCc1nnc(S)n1/N=C/C(C)=C\c1ccccc1` the IC50 (Beta-lactamase [12]) was > 59.6 µM (inactive), the IC50 (Beta Lactamase [13]) was 0.332 µM (active) and the IC50 (Beta Lactamase [14]) was 1.23 µM (active). For the same compound, the IC50 (Beta-lactamase [15]) was > 59.6 µM (inactive) and the IC50 (Beta-lactamase [16]) was > 59.6 µM (inactive).
